Measured values reported in publication PMC11788822, “Uncovering the potent antimicrobial activity of squaramide based anionophores – chloride transport and membrane disruption” (Chemical Science, 2025).
“And” between values parts separate entries of the source, which are not always exact repeats. Equal entries are not always repeated.

Legend:
[1] = Lucigenin Cl−/NO3− exchange assay in LUVs; details: Cl− transport, 0.4 mM POPC/cholesterol 7:3 LUVs, Hill fit at 270 s
Procedure: Given our objective was to use such transport behaviour as a method to disrupt anion homeostasis in bacteria, we also conducted anion transport assays in Large Unilamellar Liposomes (LUVs) using the well-established Lucigenin-based Cl^−/NO3^− exchange assay.[40] Briefly, LUVs containing the chloride sensitive dye lucigenin in a NaNO3 solution were prepared and a NaCl pulse was added to create a chloride concentration gradient. Upon addition of the putative transporter, the quenching of the fluorescence of lucigenin was monitored over time to assess Cl^− influx.
Lucigenin Cl-/NO3- anion exchange assay
LUV preparation and Lucigenin assays were carried out following procedures outlined by Valkenier and co-workers.8 Large unilamellar liposomes (LUVs) were synthesized using 1-palmitoyl-2-oleoyl-sn-glycero-3-phosphocholine (POPC)(11.2 µmol, soln. in CHCl3) and Cholesterol (4.8 µmol) mixed in a ratio of 7:3. This mixture was brought to dryness under gentle vacuum and subsequently, the mixture was rehydrated in an aqueous Lucigenin solution (1 mL, 0.8mM lucigenin in 225 mM NaNO3) and stirred for 1 h to obtain heterogeneous vesicles. After that, the vesicles underwent 9 freeze-thaw cycles and were extruded through a […] polycarbonate membrane 29 times to obtain monodisperse LUVs. A Sephadex G-100 size-exclusion column was employed to remove any unencapsulated lucigenin. The collected liposomes were diluted to 40 mL with 225 mM NaNO3 to obtain a homogeneous 0.4 mM liposome solution. Lucigenin fluorescence quenching was monitored in a time dependent manner using an Agilent Spectrofluorimeter to access Cl- influx (λ ex = 430 nm, λem = 505 nm).
Cl- transport behaviour was initiated at t=0 s by adding each compound as a solvate in DMSO followed by a 25 mM NaCl pulse (75µL, 1 M NaCl in […] NaNO3) to a 3 mL liposome solution. The data was collected for at least 600 s and then Triton X-100 (5% w/w in water) was added to lyse the liposomes, and normalize to 100% efflux. The recorded data was normalised and the fraction fluorescence intensity at 270 s of each tested concentration of transporters (mol%) was plotted against transporter concentration (mol%). The data obtained was fitted to the Hill equation to obtain the EC50 value at 270 s (the concentration to obtain the half maximum effect) by using Originlab 2024b or Graphpad Prism 10:
y = START + (END ‒ START) ∗ xn/(kn + xn)
Where n is the Hill coefficient, k presents the EC 50 value.

[2] = system: panel of Gram-positive and -negative pathogens; assay: Zone of inhibition assay; format: cell-based; details: 5 μL of 1 mM stock on nutrient agar, 37 °C, 24 h; radius ≤ 2 mm deemed not active
Procedure: To do this, a zone of inhibition assay was used as a qualitative measure of activity. To do so, 5 μL of a 1 mM stock of the respective compound was pipetted atop nutrient agar which was previously spread with a panel of Gram-positive and -negative pathogens of interest. Following incubation at 37 °C for 24 h, zones of inhibition were measured and recorded for each compound. Zones with a radius ≤ 2 mm were deemed as not active, and thus eliminated from further study.

[3] = system: methicillin-resistant S. aureus (MRSA); assay: Growth inhibition assay, MRSA; format: cell-based, Staphylococcus aureus; details: 24 h; for IC50 / IC80: Staphylococcus aureus, MRSA; for IC50: read-out: MRSA IC50, growth (OD 600 nm) relative to control, 24 h, 37 °C; for IC80: read-out: MRSA IC80, growth (OD 600 nm) relative to control, 24 h, 37 °C; for MRSA IC50: growth (OD 600 nm) relative to control, 37 °C
Procedure: (§1) To determine IC50/80 values, growth (optical density) of S. aureus, methicillin-resistant S. aureus (MRSA), P. aeruginosa, and K. pneumoniae when treated with a range of concentrations of each active compound in vitro was measured at 600 nm after a 24 h incubation period at 37 °C. Each compound was studied for activity below […], and those showing little activity above 200 μM, were noted as such, and omitted from further study.
Staphylococcus aureus culture conditions […]
Methicillin-resistant Staphylococcus aureus culture conditions
Methicillin-resistant S. aureus (clinical isolate – St. James’ University Hospital, Dublin) was cultured at 37 °C in Nutrient broth (Oxoid), containing 25 µg/mL Ampicillin in an orbital shaker at 200 rpm. Stocks were kept on nutrient agar containing 25 µg/mL Ampicillin, stored at 4 °C for up to 2 months, or as glycerol stocks (50/50 glycerol:culture), stored at -70 °C indefinitely. […]
(§2) Bacterial cultures were brought to early stationary phase overnight, in nutrient broth (containing 25/50 µg/mL Ampicillin for MRSA/K. pneumoniae, respectively) at 37 °C. Cultures were diluted to an OD600 = 0.01. Aliquots of Culture (100 µl) were added to 100 µL serially diluted compound (200 – 0.78 µM) in nutrient broth in a 96-well plate (Sarstedt, Germany).
(§3) Plates were incubated at 37 °C for 24 h and growth was measured at 600 nm, where growth was measured and represented relative to control. […]

[4] = 1H NMR titration with TBACl, Cl− binding; details: association constant towards Cl−, compound 2.5 mM, 95% DMSO-d6, 1:1 binding model (Bindfit), errors below 10%
Procedure: To verify if 1–6 formed host–guest complexes with Cl^− in solution, ^1H NMR titrations of each compound (2.5 mM) with TBACl were carried out in DMSO-d6. Increasing equivalents of Cl^− were incrementally added, with spectral information obtained upon addition of each molar equivalent of Cl^−. […] Taking 1 as an example (Fig. 2), upon addition of sequential aliquots of Cl^− there is a clear downfield shift of both squaramide NHs, with minor contributions to the binding cleft derived from the ortho-aryl protons of the aniline of 1. The binding data from each titration was fitted to a 1 : 1 binding model using the Bindfit[36] open access software, and the results are tabulated below (Table 1), alongside the respective Hammett constant for the relevant substitution pattern.[37] […] This aligns with previously reported receptors,[38] where compounds containing CF3 substituents in particular are known to have increased anion binding affinity as well as transport ability.[39]

S. aureus = assay: Growth inhibition assay, S. aureus; format: cell-based, Staphylococcus aureus; details: 24 h, growth (OD 600 nm) relative to control, 37 °C; for IC80 / IC50: Staphylococcus aureus
Procedure: as §1
Staphylococcus aureus culture conditions
S. aureus (ATCC33951) was cultured at 37 °C in Nutrient broth (Oxoid), in an orbital shaker at 200 rpm. Stocks were kept on nutrient agar, stored at 4 °C for up to 2 months, or as glycerol stocks (50/50 glycerol:culture), stored at -70 °C indefinitely. […]
as §2, §3

[5] = design: method as in doi:10.1021/jo01097a026; details: for the relevant substitution pattern; cited from earlier work

Structure (SMILES)	EC50 (mol%) [1]	zone of inhibition, qualitative measure of activity [2]	IC50 [3]	IC80 [3]	MRSA IC50 [3]	K a [4]	IC80 (S. aureus)	IC50 (S. aureus)	S. aureus IC50 (S. aureus)	Hammett parameter (σ) [5]
O=c1c(Nc2ccccc2Cl)c(NC23CC4CC(CC(C4)C2)C3)c1=O [Compound 5]	1.349 mol%	promising bioactivity	> 200 µM	> 200 µM	lay outside the concentration range tested	44 M⁻¹	> 200 µM	> 200 µM	lay outside the concentration range tested	
O=c1c(Nc2ccc(Cl)cc2)c(NC23CC4CC(CC(C4)C2)C3)c1=O [Compound 3]	0.2597 mol% and 0.260 mol%	promising bioactivity	> 200 µM	> 200 µM	lay outside the concentration range tested	207 M⁻¹	> 200 µM	> 200 µM	lay outside the concentration range tested	0.23
O=c1c(Nc2ccccc2)c(NC23CC4CC(CC(C4)C2)C3)c1=O [Compound 6]			> 200 µM	> 200 µM	lay outside the concentration range tested	138 M⁻¹	> 200 µM	> 200 µM	lay outside the concentration range tested	0.0
